Key:
[1] = calculated from Stokes-Einstein equation for equivalent spheres; cited from earlier work
Permeability = conditions: human, pH 7.4

## OC[C@@H](O)[C@@H](O)[C@H](O)[C@H](O)CO [[^14C] Mannitol, Mannitol]
[1]
  Molecular Radius: 4.10 Å
Permeability
  Papp at 2 h, 0.25 µCi/mL: 24.7 ± 0.2 ×10⁻⁶ cm/s

## NC(N)=O [[^14C] Urea, Urea]
[1]
  Molecular Radius: 2.67 Å
hCMEC/D3 cells; pH 7.4
  PM (permeability across the monolayer itself): 5.65 ± 0.08 × 10^−5 cm/sec

## CC(C)[C@H](N)C(=O)OCCOCn1cnc2c(=O)[nH]c(N)nc21 [valacyclovir]
hCMEC/D3 cells
  A-B versus B-A relative permeability (PM): no differences between the A-B and B-A relative permeabilities

Reference: publication PMC2914114 (Molecular pharmaceutics, 2010)
